Results from the kinase profiling compilation of Christmann-Franck et al. (2016).

What was measured:
Assay in all cases: radiometric filter-binding kinase assay
EPHB3 (human) = EPHB3 (human) (UniProt P54753)
IKBKE (human) = IKBKE (human) (UniProt Q14164)
TAOK1 (human) = TAOK1 (human) (UniProt Q7L7X3)
PAK4 (human) = PAK4 (human) (UniProt O96013)
HIPK1 (human) = HIPK1 (human) (UniProt Q86Z02)
[1] = tested on: AKT1 (human), P31749 [S473D]
NEK6 (human) = NEK6 (human) (UniProt Q9HC98)
MARK1 (human) = MARK1 (human) (UniProt Q9P0L2); conditions: compound 10.0 µM
MAP2K6 (human) = MAP2K6 (human) (UniProt P52564)
PAK7 (human) = PAK7 (human) (UniProt Q9P286)
NUAK1 (human) = NUAK1 (human) (UniProt O60285)
NUAK1 (human), sequence (O60285 whole entry, looked up): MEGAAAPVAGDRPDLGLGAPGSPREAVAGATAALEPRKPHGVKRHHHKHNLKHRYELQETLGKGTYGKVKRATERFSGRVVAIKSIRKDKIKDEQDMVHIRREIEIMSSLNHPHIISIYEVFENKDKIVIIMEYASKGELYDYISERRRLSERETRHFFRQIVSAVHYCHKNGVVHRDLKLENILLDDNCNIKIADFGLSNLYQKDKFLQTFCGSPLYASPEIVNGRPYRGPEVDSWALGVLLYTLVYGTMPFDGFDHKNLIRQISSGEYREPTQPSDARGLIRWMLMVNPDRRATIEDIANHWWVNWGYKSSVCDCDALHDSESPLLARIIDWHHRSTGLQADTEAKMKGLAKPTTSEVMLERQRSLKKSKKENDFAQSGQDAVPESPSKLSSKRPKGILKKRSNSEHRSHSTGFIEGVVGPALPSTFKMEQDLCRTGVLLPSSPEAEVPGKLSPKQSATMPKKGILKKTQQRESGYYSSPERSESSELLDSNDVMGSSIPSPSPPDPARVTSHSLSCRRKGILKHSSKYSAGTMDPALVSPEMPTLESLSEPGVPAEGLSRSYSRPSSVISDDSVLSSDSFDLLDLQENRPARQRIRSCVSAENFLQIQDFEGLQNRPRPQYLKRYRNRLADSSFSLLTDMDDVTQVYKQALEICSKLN

DYRK3 (human) = DYRK3 (human) (UniProt O43781)
MAPK14 (human) = MAPK14 (human) (UniProt Q16539)
MARK3 (human) = MARK3 (human) (UniProt P27448)
MARK3 (human), sequence (P27448 whole entry, looked up): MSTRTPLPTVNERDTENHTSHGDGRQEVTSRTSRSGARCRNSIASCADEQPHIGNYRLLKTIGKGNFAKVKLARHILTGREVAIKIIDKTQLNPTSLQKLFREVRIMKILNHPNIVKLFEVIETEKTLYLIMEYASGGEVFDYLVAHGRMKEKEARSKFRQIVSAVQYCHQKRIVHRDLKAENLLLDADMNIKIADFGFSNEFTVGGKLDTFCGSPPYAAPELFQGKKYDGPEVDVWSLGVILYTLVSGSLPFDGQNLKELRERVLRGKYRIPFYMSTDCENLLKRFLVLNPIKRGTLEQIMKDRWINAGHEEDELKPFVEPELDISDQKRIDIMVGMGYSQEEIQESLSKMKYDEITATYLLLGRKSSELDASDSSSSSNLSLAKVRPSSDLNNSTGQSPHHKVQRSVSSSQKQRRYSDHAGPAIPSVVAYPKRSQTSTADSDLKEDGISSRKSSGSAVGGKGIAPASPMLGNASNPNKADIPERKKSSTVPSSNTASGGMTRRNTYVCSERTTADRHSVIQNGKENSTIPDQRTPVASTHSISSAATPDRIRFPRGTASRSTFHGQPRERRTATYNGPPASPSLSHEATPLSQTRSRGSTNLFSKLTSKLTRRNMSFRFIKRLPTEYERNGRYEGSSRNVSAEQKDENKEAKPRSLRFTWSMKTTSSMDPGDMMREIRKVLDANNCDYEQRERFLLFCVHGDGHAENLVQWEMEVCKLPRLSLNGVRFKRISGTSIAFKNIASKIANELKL

CSNK2A1 (human) = CSNK2A1 (human) (UniProt P68400)
EPHA2 (human) = EPHA2 (human) (UniProt P29317)
CaMK1 (human) = CaMK1 (human) (UniProt Q14012)
RPS6KA5 KD1 KD2 (human) = RPS6KA5 KD1 KD2 (human) (UniProt O75582)
PAK6 (human) = PAK6 (human) (UniProt Q9NQU5)
PAK6 (human), sequence (Q9NQU5 whole entry, looked up): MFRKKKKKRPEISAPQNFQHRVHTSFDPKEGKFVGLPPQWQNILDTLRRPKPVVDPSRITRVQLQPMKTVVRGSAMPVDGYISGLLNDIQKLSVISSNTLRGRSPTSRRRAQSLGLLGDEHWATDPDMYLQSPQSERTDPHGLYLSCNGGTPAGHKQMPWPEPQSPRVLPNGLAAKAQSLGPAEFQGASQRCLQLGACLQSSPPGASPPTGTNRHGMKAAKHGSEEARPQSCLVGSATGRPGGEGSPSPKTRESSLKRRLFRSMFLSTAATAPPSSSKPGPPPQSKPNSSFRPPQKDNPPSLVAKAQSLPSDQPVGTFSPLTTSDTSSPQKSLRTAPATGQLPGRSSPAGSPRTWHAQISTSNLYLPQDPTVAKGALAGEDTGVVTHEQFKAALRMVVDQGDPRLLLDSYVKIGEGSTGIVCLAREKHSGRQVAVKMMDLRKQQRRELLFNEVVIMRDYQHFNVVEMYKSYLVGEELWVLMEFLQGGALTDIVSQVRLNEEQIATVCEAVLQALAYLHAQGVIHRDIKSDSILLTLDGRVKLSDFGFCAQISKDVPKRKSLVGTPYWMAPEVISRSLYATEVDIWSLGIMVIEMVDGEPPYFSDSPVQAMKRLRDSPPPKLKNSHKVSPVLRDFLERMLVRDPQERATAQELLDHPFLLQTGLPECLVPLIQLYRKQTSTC

MAP3K9 (human) = MAP3K9 (human) (UniProt P80192)
EEF2K (human) = EEF2K (human) (UniProt O00418)
EEF2K (human), sequence (O00418 whole entry, looked up): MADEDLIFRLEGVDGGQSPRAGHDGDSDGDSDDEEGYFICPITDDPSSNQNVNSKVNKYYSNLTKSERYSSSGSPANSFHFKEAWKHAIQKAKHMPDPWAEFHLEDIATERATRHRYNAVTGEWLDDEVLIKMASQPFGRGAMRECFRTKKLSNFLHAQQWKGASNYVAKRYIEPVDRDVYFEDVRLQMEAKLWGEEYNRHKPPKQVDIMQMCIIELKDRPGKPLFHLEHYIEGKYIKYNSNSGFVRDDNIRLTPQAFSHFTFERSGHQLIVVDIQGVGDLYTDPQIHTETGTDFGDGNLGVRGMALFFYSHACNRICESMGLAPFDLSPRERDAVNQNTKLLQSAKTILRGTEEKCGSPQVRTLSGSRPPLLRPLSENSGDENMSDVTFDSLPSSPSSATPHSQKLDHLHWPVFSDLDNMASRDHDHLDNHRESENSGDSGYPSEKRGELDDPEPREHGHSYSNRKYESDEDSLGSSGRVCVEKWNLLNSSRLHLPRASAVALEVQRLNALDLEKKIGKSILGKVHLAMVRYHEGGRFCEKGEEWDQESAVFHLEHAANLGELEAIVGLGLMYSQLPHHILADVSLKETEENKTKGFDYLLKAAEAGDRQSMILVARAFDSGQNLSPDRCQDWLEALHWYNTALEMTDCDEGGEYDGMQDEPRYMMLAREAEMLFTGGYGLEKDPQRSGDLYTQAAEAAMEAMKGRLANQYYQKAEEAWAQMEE

HIPK3 (human) = HIPK3 (human) (UniProt Q9H422)
MST4 (human) = MST4 (human) (UniProt Q9P289)
MAPKAPK5 (human) = MAPKAPK5 (human) (UniProt Q8IW41)
DYRK1A (human) = DYRK1A (human) (UniProt Q13627)
MAPK13 (human) = MAPK13 (human) (UniProt O15264)
DYRK2 (human) = DYRK2 (human) (UniProt Q92630)
MAPK11 (human) = MAPK11 (human) (UniProt Q15759)
MAPK11 (human), sequence (Q15759 whole entry, looked up): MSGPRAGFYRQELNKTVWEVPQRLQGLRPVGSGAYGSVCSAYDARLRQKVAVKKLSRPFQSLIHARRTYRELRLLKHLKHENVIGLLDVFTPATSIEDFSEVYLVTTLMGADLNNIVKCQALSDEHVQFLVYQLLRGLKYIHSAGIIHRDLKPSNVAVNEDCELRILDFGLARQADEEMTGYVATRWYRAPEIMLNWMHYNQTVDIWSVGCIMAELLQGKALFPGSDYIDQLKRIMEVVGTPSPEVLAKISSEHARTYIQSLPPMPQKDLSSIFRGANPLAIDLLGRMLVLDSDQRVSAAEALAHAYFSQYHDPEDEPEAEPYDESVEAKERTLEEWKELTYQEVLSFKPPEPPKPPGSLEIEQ

PRKCZ (human) = PRKCZ (human) (UniProt Q05513)
BTK (human) = BTK (human) (UniProt Q06187)
BTK (human), sequence (Q06187 whole entry, looked up): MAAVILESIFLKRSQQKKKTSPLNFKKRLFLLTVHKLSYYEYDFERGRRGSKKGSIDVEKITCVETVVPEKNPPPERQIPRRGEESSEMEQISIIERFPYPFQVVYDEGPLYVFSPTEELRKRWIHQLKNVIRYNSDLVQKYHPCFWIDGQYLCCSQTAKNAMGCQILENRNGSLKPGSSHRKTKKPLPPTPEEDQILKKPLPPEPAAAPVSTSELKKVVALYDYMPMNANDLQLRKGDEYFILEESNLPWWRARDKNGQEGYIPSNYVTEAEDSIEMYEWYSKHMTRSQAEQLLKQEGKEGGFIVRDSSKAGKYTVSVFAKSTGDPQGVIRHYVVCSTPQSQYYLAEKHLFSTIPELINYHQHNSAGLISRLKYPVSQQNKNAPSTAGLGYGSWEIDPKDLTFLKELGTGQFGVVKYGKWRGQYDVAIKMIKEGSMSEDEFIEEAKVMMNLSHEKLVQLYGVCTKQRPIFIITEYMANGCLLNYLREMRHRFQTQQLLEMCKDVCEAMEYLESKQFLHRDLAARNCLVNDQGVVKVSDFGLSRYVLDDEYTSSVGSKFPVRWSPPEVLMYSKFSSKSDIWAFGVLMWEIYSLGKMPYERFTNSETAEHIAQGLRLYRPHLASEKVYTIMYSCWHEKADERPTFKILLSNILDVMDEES

HIPK2 (human) = HIPK2 (human) (UniProt Q9H2X6)
DAPK1 (human) = DAPK1 (human) (UniProt P53355)
ERBB4 (human) = ERBB4 (human) (UniProt Q15303)
LCK (mouse) = conditions: accession and sequence are those of the human protein
EPHB1 (human) = EPHB1 (human) (UniProt P54762)
ROCK2 (rat) = conditions: accession and sequence are those of the human protein

TAOK1 (human), sequence (Q7L7X3 whole entry, looked up): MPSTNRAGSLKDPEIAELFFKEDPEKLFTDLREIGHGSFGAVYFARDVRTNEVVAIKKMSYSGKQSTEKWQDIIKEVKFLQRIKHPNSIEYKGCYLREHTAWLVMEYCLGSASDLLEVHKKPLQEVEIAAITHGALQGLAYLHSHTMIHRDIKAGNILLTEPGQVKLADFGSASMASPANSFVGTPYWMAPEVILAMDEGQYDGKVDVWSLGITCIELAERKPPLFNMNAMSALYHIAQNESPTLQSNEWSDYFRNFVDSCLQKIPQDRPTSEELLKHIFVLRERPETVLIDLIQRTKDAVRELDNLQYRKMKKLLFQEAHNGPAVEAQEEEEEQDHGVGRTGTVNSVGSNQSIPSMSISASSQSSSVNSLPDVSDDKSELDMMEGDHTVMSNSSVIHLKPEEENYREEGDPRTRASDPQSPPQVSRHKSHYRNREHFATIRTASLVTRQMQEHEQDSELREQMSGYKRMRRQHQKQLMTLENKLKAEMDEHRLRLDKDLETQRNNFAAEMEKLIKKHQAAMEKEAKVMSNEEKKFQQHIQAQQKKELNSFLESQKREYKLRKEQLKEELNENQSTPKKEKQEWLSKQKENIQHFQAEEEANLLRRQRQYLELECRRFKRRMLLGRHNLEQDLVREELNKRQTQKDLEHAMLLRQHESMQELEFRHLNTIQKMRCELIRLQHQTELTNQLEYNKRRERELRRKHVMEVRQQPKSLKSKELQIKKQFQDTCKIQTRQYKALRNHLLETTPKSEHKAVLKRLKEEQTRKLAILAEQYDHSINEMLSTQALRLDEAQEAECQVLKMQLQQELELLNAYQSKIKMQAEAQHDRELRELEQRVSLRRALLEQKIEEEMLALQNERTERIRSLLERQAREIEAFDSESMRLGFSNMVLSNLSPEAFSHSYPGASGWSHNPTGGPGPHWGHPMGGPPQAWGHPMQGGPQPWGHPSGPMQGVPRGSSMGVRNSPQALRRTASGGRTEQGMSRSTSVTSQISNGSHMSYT

Question: Which residual activity (EPHB3 (human); compound 0.1 µM) does the source give for O=C(N[C@@H](COc1ccc2[nH]c(=O)[nH]c2c1)c1ccccc1)c1cccn(Cc2ccc(F)c(F)c2)c1=O here?
Answer: 114%

Question: And the residual activity (EPHB3 (human); compound 1.0 µM)?
Answer: 119%

Question: What about the residual activity (EPHB3 (human); compound 10.0 µM) of the same molecule?
Answer: 113%

Question: What about the residual activity (IKBKE (human); compound 0.1 µM) of the same molecule?
Answer: 103%

Question: And the residual activity (IKBKE (human); compound 1.0 µM)?
Answer: 109%

Question: And the residual activity (IKBKE (human); compound 10.0 µM)?
Answer: 95%

Question: What about the residual activity (TAOK1 (human); compound 0.1 µM) of the same molecule?
Answer: 111%

Question: What about the residual activity (TAOK1 (human); compound 1.0 µM) of the same molecule?
Answer: 126%

Question: And the residual activity (TAOK1 (human); compound 10.0 µM)?
Answer: 119%

Question: What about the residual activity (PAK4 (human); compound 0.1 µM) of the same molecule?
Answer: 102%

Question: What about the residual activity (PAK4 (human); compound 1.0 µM) of the same molecule?
Answer: 101%

Question: And the residual activity (PAK4 (human); compound 10.0 µM)?
Answer: 67%

Question: What about the residual activity (HIPK1 (human); compound 0.1 µM) of the same molecule?
Answer: 99%

Question: What about the residual activity (HIPK1 (human); compound 1.0 µM) of the same molecule?
Answer: 100%

Question: And the residual activity (HIPK1 (human); compound 10.0 µM)?
Answer: 86%

Question: What about the residual activity ([1]; compound 0.1 µM) of the same molecule?
Answer: 96%

Question: What about the residual activity ([1]; compound 1.0 µM) of the same molecule?
Answer: 97%

Question: And the residual activity ([1]; compound 10.0 µM)?
Answer: 90%

Question: And the residual activity (NEK6 (human); compound 0.1 µM)?
Answer: 104%

Question: And the residual activity (NEK6 (human); compound 1.0 µM)?
Answer: 100%

Question: And the residual activity (NEK6 (human); compound 10.0 µM)?
Answer: 98%

Question: And the residual activity (MARK1 (human))?
Answer: 107%

Question: What about the residual activity (MAP2K6 (human); compound 0.1 µM) of the same molecule?
Answer: 94%

Question: What about the residual activity (MAP2K6 (human); compound 1.0 µM) of the same molecule?
Answer: 89%

Question: What about the residual activity (MAP2K6 (human); compound 10.0 µM) of the same molecule?
Answer: 108%

Question: What about the residual activity (PAK7 (human); compound 0.1 µM) of the same molecule?
Answer: 104%

Question: And the residual activity (PAK7 (human); compound 1.0 µM)?
Answer: 92%

Question: What about the residual activity (PAK7 (human); compound 10.0 µM) of the same molecule?
Answer: 64%

Question: And the residual activity (NUAK1 (human); compound 0.1 µM)?
Answer: 115%

Question: And the residual activity (NUAK1 (human); compound 1.0 µM)?
Answer: 107%

Question: And the residual activity (NUAK1 (human); compound 10.0 µM)?
Answer: 98%

Question: And the residual activity (DYRK3 (human); compound 0.1 µM)?
Answer: 109%

Question: What about the residual activity (DYRK3 (human); compound 1.0 µM) of the same molecule?
Answer: 109%

Question: And the residual activity (DYRK3 (human); compound 10.0 µM)?
Answer: 93%

Question: What about the residual activity (MAPK14 (human); compound 0.1 µM) of the same molecule?
Answer: 114%

Question: What about the residual activity (MAPK14 (human); compound 1.0 µM) of the same molecule?
Answer: 121%

Question: And the residual activity (MAPK14 (human); compound 10.0 µM)?
Answer: 114%

Question: What about the residual activity (MARK3 (human); compound 0.1 µM) of the same molecule?
Answer: 99%

Question: What about the residual activity (MARK3 (human); compound 1.0 µM) of the same molecule?
Answer: 93%

Question: And the residual activity (MARK3 (human); compound 10.0 µM)?
Answer: 83%

Question: What about the residual activity (CSNK2A1 (human); compound 0.1 µM) of the same molecule?
Answer: 111%

Question: And the residual activity (CSNK2A1 (human); compound 1.0 µM)?
Answer: 103%

Question: And the residual activity (CSNK2A1 (human); compound 10.0 µM)?
Answer: 107%

Question: What about the residual activity (EPHA2 (human); compound 1.0 µM) of the same molecule?
Answer: 102%

Question: And the residual activity (EPHA2 (human); compound 10.0 µM)?
Answer: 86%

Question: What about the residual activity (CaMK1 (human); compound 0.1 µM) of the same molecule?
Answer: 95%

Question: What about the residual activity (CaMK1 (human); compound 1.0 µM) of the same molecule?
Answer: 92%

Question: And the residual activity (CaMK1 (human); compound 10.0 µM)?
Answer: 51%

Question: What about the residual activity (RPS6KA5 KD1 KD2 (human); compound 0.1 µM) of the same molecule?
Answer: 101%

Question: And the residual activity (RPS6KA5 KD1 KD2 (human); compound 1.0 µM)?
Answer: 104%

Question: And the residual activity (RPS6KA5 KD1 KD2 (human); compound 10.0 µM)?
Answer: 106%

Question: What about the residual activity (PAK6 (human); compound 0.1 µM) of the same molecule?
Answer: 102%

Question: And the residual activity (PAK6 (human); compound 1.0 µM)?
Answer: 102%

Question: What about the residual activity (PAK6 (human); compound 10.0 µM) of the same molecule?
Answer: 89%

Question: What about the residual activity (MAP3K9 (human); compound 0.1 µM) of the same molecule?
Answer: 119%

Question: And the residual activity (MAP3K9 (human); compound 1.0 µM)?
Answer: 102%

Question: What about the residual activity (MAP3K9 (human); compound 10.0 µM) of the same molecule?
Answer: 50%

Question: And the residual activity (EEF2K (human); compound 0.1 µM)?
Answer: 95%

Question: What about the residual activity (EEF2K (human); compound 1.0 µM) of the same molecule?
Answer: 103%

Question: What about the residual activity (EEF2K (human); compound 10.0 µM) of the same molecule?
Answer: 107%

Question: What about the residual activity (HIPK3 (human); compound 0.1 µM) of the same molecule?
Answer: 99%

Question: And the residual activity (HIPK3 (human); compound 1.0 µM)?
Answer: 108%

Question: What about the residual activity (HIPK3 (human); compound 10.0 µM) of the same molecule?
Answer: 91%

Question: What about the residual activity (MST4 (human); compound 0.1 µM) of the same molecule?
Answer: 101%

Question: And the residual activity (MST4 (human); compound 1.0 µM)?
Answer: 117%

Question: And the residual activity (MST4 (human); compound 10.0 µM)?
Answer: 86%

Question: What about the residual activity (MAPKAPK5 (human); compound 0.1 µM) of the same molecule?
Answer: 108%

Question: What about the residual activity (MAPKAPK5 (human); compound 1.0 µM) of the same molecule?
Answer: 100%

Question: And the residual activity (MAPKAPK5 (human); compound 10.0 µM)?
Answer: 95%

Question: What about the residual activity (DYRK1A (human); compound 0.1 µM) of the same molecule?
Answer: 113%

Question: What about the residual activity (DYRK1A (human); compound 1.0 µM) of the same molecule?
Answer: 97%

Question: What about the residual activity (DYRK1A (human); compound 10.0 µM) of the same molecule?
Answer: 79%

Question: What about the residual activity (MAPK13 (human); compound 0.1 µM) of the same molecule?
Answer: 91%

Question: And the residual activity (MAPK13 (human); compound 1.0 µM)?
Answer: 97%

Question: And the residual activity (MAPK13 (human); compound 10.0 µM)?
Answer: 94%

Question: And the residual activity (DYRK2 (human); compound 0.1 µM)?
Answer: 110%

Question: And the residual activity (DYRK2 (human); compound 1.0 µM)?
Answer: 101%

Question: What about the residual activity (DYRK2 (human); compound 10.0 µM) of the same molecule?
Answer: 83%

Question: And the residual activity (MAPK11 (human); compound 0.1 µM)?
Answer: 100%

Question: And the residual activity (MAPK11 (human); compound 1.0 µM)?
Answer: 110%

Question: And the residual activity (MAPK11 (human); compound 10.0 µM)?
Answer: 115%

Question: And the residual activity (PRKCZ (human); compound 0.1 µM)?
Answer: 104%

Question: What about the residual activity (PRKCZ (human); compound 1.0 µM) of the same molecule?
Answer: 106%

Question: And the residual activity (PRKCZ (human); compound 10.0 µM)?
Answer: 88%

Question: What about the residual activity (BTK (human); compound 0.1 µM) of the same molecule?
Answer: 109%

Question: And the residual activity (BTK (human); compound 1.0 µM)?
Answer: 108%

Question: What about the residual activity (BTK (human); compound 10.0 µM) of the same molecule?
Answer: 110%

Question: What about the residual activity (HIPK2 (human); compound 0.1 µM) of the same molecule?
Answer: 92%

Question: And the residual activity (HIPK2 (human); compound 1.0 µM)?
Answer: 96%

Question: And the residual activity (HIPK2 (human); compound 10.0 µM)?
Answer: 90%

Question: And the residual activity (DAPK1 (human); compound 0.1 µM)?
Answer: 106%

Question: What about the residual activity (DAPK1 (human); compound 1.0 µM) of the same molecule?
Answer: 113%

Question: And the residual activity (DAPK1 (human); compound 10.0 µM)?
Answer: 91%

Question: What about the residual activity (ERBB4 (human); compound 0.1 µM) of the same molecule?
Answer: 102%

Question: And the residual activity (ERBB4 (human); compound 1.0 µM)?
Answer: 100%

Question: What about the residual activity (ERBB4 (human); compound 10.0 µM) of the same molecule?
Answer: 98%

Question: And the residual activity (LCK (mouse); compound 0.1 µM)?
Answer: 109%

Question: And the residual activity (LCK (mouse); compound 1.0 µM)?
Answer: 101%

Question: And the residual activity (LCK (mouse); compound 10.0 µM)?
Answer: 91%

Question: What about the residual activity (EPHB1 (human); compound 0.1 µM) of the same molecule?
Answer: 87%

Question: What about the residual activity (EPHB1 (human); compound 1.0 µM) of the same molecule?
Answer: 88%

Question: And the residual activity (EPHB1 (human); compound 10.0 µM)?
Answer: 90%

Question: And the residual activity (ROCK2 (rat); compound 0.1 µM)?
Answer: 105%

Question: And the residual activity (ROCK2 (rat); compound 1.0 µM)?
Answer: 112%

Question: What about the residual activity (ROCK2 (rat); compound 10.0 µM) of the same molecule?
Answer: 108%
